Assay results reported in patent publication US20050232902A1, “Injectable bioartificial tissue matrix” (priority 2004, published 2005).

What was measured:
[1] = test system: injured myocardium; experiment: Transplantation of hES-derived cardiomyocytes pretreated with ascorbic acid into LAD-ligated heart, graft/infarct ratio; format: in vivo, Mice
Excerpt: The ascorbic acid-treated cells can become large conglomerates of cells in the injected tissue and thereby can restore major portions of a damaged heart muscle when compared with tissue injected with untreated cells. The proportion of host tissue target organ restored by the grafted cultured cells can be evaluated by a measure termed the “graft/infarct ratio”. The graft/infarct ratio is the ratio of the portion of the ‘dead tissue’ area of the target organ that is restored and/or replaced by transplanted cells of bioartificial tissue. The ratio is determined by dividing a measured area of the restored and/or replaced area by the total measured area of ‘dead tissue’. In addition, a measure or growth and/or of viability can be determined by other methods known in the art. Such methods include, staining of tissue slices with trypan blue to determine extent of dye exclusion, determining nucleic acid uptake of tritiated thymidine into proliferating cells, and staining of tissue slices with toluidin blue to determine extent of dye uptake.
Human ES (hES) cell lines, H1 and H7 (Mummery et al., (2002) supra; Hescheler, B. K. et al. (1997) Cardiovasc. Res. 36:149-162) were initially maintained on feeders in ES medium containing 80% knockout Dulbecco's modified Eagle's medium (KO-DMEM) (Invitrogen, Carlsbad Calif.), 1 mM L-glutamine, 0.1 mM β-mercaptoethanol, 1% nonessential amino acids stock (Invitrogen), 20% Serum Replacement (Invitrogen, Carlsbad Calif.) and 4 ng/ml hbFGF (Invitrogen). The cells were later maintained using feeder-free conditions, herein described. Briefly, feeder-free cultures were passaged by incubation in 200 units/ml collagenase IV for 5-10 minutes at 37° C., dissociated and then seeded onto MATRIGEL-coated plates and maintained in conditioned medium (CM) prepared from primary mouse embryonic fibroblast cultures.
Confluent H7 hES cell cultures were incubated with 0.5 mM EDTA in phosphate-buffered saline (PBS) at 37° C. for 8 min, dissociated, resuspended in CM and replated onto MATRIGEL-coated plates at ˜1×10^6 cells/cm^2. […]

[2] = test system: transplant cell viability and colonization; experiment: Adjuvants compared with ascorbic acid in transplantable cell cultures (Example VI); format: in vivo; conditions: treatment of cells prior to transplantation into a target organ
Excerpt: In separate experiments, treatment with other adjuvants or treatments were compared with treatment with ascorbic acid. [formula]

[3] = test system: chondrocytes; conditions: cited from earlier work

Compound: O=C1O[C@H]([C@@H](O)CO)C(O)=C1O [ascorbic acid]
- Increase of graft/infarct ratio compared with untreated cells ([1]; 24 hours (treated) vs six hours (untreated, R=0.09:1.0) after transplantation): 4.6 fold
- Effects on colonization and viability of pretreated cells at subsequent time points ([1]; 7 days, 14 days, and 28 days following transplantation): sustained
- Area of the tissue populated by transplanted cells ([1]; cells pretreated 24 hrs with 1 mM ascorbic acid, 24 hours following transplantation, total damaged area 536,594 μm^2, FIG. 5): 215,525 μm^2
- Increase in transplant cell viability and colonization [2]: at least 47 fold
- Viable cells in the gelled culture ([3]; 2×10^5 cells starting number, 50 μg/ml ascorbic acid, three weeks in vitro): approximately 12×10^5 cells
- Increase in cell viability ([3]; chondrocytes incubated three weeks in vitro vs absence of ascorbic acid): approximately ten-fold
- Viable cells after three weeks incubation ([3]; starting number 2×10^6 cells): 2.6×10^6 cells
